Assay results reported in US5703109A, “Selective aromatase inhibiting compounds” (Oy; Orion-yhtyma, priority 1992, dated 1997).

What was measured:
desmolase = assay: Inhibition of desmolase (cholesterol side chain cleavage, SCC, activity); assay type: biochemical; details: mitochondrial fraction from human placenta or bovine adrenals, 37° C., 30 min; read-out: DESMOLASE IC-50
Experimental: Incubations were carried out in 1,5 ml Eppendorf plastic robes, and an Eppendoff shaker, centrifuge and incubator were used as a unit. […] Controls contained all the above substances but the enzyme preparation was inactivated prior to the incubation by the addition of 900 μl of methanol. The mitochondrial fraction (1 mg protein) from human placenta or bovine adrenals was used as a source of enzyme. After 30 min incubation at 37° C., the reaction was terminated by the addition of 900 μl of methanol; 1500 dpm of marker ^14 C-4-pregnenolone was added to each incubate and the robes were vigorously shaken. […] The column was washed with one ml of 75% methanol and then with 3 ml of 80% methanol The 80% methanol eluate was run into the counting vial and 10 ml of scintillation liquid was added. Radioactivity was counted using a double-label program on a liquid scintillation counter (LKB RackBeta).
In inhibition experiments, the substance (final concentration range from 1 to 1000 μM) was added into incubation mixture in a volume of 10-20 μl, usually as methanol or ethanol solution. The same volume of the solute was added into control incubation vial.

human aromatase = target: T1, human aromatase (Homo sapiens, UniProt P11511); assay: Inhibition of human aromatase (3H2O release from 1,2[3H]-androstene-3,17-dione, human placenta microsomes); assay type: biochemical; details: human placental microsomes, 37° C., 40 min; read-out: AROMATASE IC-50
T1 construct: The enzyme preparation was used without further purification; from tissue; host or cells: human placenta, microsomal fraction (100000×g precipitate)
T1 sequence (P11511 1-503): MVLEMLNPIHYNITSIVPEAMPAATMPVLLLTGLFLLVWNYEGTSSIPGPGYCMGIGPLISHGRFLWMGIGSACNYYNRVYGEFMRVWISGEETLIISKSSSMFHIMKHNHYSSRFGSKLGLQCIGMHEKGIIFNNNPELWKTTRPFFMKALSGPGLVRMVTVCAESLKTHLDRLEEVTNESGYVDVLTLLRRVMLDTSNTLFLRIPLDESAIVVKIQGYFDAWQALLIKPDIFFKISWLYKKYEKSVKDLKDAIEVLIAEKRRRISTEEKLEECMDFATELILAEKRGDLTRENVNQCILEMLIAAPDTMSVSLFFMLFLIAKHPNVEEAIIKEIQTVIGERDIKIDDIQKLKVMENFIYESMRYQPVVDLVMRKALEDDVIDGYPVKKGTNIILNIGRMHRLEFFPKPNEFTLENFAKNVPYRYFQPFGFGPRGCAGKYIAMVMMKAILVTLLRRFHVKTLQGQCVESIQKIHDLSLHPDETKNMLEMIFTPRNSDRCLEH
Experimental: Human aromatase enzyme was used. The enzyme was prepared from human placenta, which is rich of the enzyme. Microsomal fraction (100000×g precipitate) was prepared by centrifugation. The enzyme preparation was used without further purification. Test compounds listed in Table 1 were added together with 100000 dpm of 1,2[^3 H]-androstene-3,17-dione and NADPH generating system. The concentrations of the test compounds were 0.001; 0.01; 0.1 and 1.0 mM. The incubation was carried out at 37° C. for 40 min. […] Radioactivity was counted by a liquid scintillation counter. Aromatase inhibition was evaluated by comparing the ^3 H2 O-radioactivity of inhibitor treated samples to controls containing no inhibitor. IC-50 values were calculated as concentrations which inhibited the enzyme activity 50%.

[1] = Acute toxicity, LD50, oral, in mice; assay type: in vivo; details: young adult female NMRI mice
Description: […]. The administration of the test compound was oral.

With `N#Cc1ccc(C(C(O)CCc2ccc(F)cc2)n2ccnc2)cc1` (single isomer, unassigned) [Compound 2, 1-[1-(4-cyanophenyl)-4-(4-fluorophenyl)-2-hydroxybutyl]-1H-imidazole, diastereomer a + d] the IC50 (desmolase) was 49 µM and the IC50 (human aromatase) was 0.18 µM.
For `N#Cc1ccc(C(C(O)Cc2ccc(F)cc2)n2cncn2)cc1` (single isomer, unassigned) [Compound 4, 1-[1-(4-cyanophenyl)-3-(4-fluorophenyl)-2-hydroxypropyl]-1,2,4-triazole, diastereomer a + d], the IC50 (desmolase) was > 1000 µM, the “Acute toxicity (LD50 determination): tolerability of the highest dose tested” value ([1]; highest dose tested 400 mg/kg) was “well tolerated” and the “Acute toxicity (LD50 determination): adverse effects” value ([1]; up to 400 mg/kg) was “No adverse effects were seen”. It also gave an IC50 (human aromatase) of 0.26 µM.
With `N#Cc1ccc(C(C(O)CCc2ccc(F)cc2)n2cncn2)cc1` (single isomer, unassigned) [Compound 5, 1-[1-(4-cyanophenyl)-4-(4-fluorophenyl)-2-hydroxybutyl]-1,2,4-triazole, diastereomer a + d] the IC50 (desmolase) was > 1000 µM and the IC50 (human aromatase) was 0.95 µM.
Work on `N#Cc1ccc(C(=CCCc2ccc(F)cc2)n2cncn2)cc1` (single isomer, unassigned; isomer b) [Compound 3, 1-[1-(4-cyanophenyl)-4-(4-fluorophenyl)-1-butenyl]-1,2,4-triazole, isomer b] yielded an IC50 (desmolase) of 300 µM.
For `N#Cc1ccc(C(=CCc2ccc(F)cc2)n2cncn2)cc1` (single isomer, unassigned; isomer b) [Compound 8, 1-[1-(4-cyanophenyl)-3-(4-fluorophenyl)-1-propenyl]-1,2,4-triazole, isomer b], the IC50 (desmolase) was 165 µM.
For `N#Cc1ccc(C(CCCc2ccc(F)cc2)n2ccnc2)cc1` (centres unmarked) [Compound 1, 1-[1-(4-cyanophenyl)-4-(4-fluorophenyl)butyl]-1H-imidazole], the IC50 (desmolase) was 17 µM.
Work on `N#Cc1ccc(C(CC(O)c2ccc(F)cc2)n2cncn2)cc1` (centres unmarked) [Compound 6, 1-[1-(4-cyanophenyl)-3-(4-fluorophenyl)-3-hydroxypropyl]-1,2,4-triazole] yielded an IC50 (desmolase) of 380 µM and an IC50 (human aromatase) of 0.3 µM.
Compound `N#Cc1ccc(C(C(=O)CCc2ccc(F)cc2)n2cncn2)cc1` (centres unmarked) [Compound 7, 1-[1-(-4-cyanophenyl)-4-(4-fluorophenyl)-2-oxobutyl]-1,2,4-triazole] has an IC50 (desmolase) of 172 µM and an IC50 (human aromatase) of 0.9 µM.
With `N#Cc1ccc(C(O)(CCc2ccc(F)cc2)c2cncs2)cc1` (centres unmarked) [Compound 9, 5-[1-(4-cyanophenyl)-3-(4-fluorophenyl)-1-hydroxypropyl]thiazole] the IC50 (desmolase) was 300 µM and the IC50 (human aromatase) was 0.28 µM.
